This is an account of results in patent US12685726B2, “Sulfoximines as inhibitors of NaV1.8” (Gruenenthal GmbH, priority 2022, dated 2026).

This assay has as its target T1, human NaV 1.8 (Homo sapiens, UniProt Q9Y5Y9).
T1 construct: expressed in transfected cells; host or cells: HEK (recombinant cell line)
Nature of the assay: Automated whole-cell patch clamp (Qube384) voltage-clamp recordings of sodium currents in HEK-NaV1.8 cell line. The assay is classed as cell-based. The following applies: read-out: Potency category (human NaV 1.8 IC50). The method, then:
Electrophysiology: Voltage-Clamp Recordings
The following NaV1.8 recombinant cell line was used for recordings: HEK-NaV1.8 (NM_006514.1) with b3 (NM_018400.3).
Sodium currents were measured using the patch clamp technique in the whole-cell configuration using the Qube384 (Sophion A/S, Copenhagen, Denmark) automated voltage clamp platform. “Multi hole” plates were used for the cell line expressing NaV1.8 while “single hole” plates were used for the recombinant cell lines expressing the other subtypes. Appropriate filters (for minimum seal resistance and minimum current size) and series resistance compensation (for high quality sodium channel recordings) were applied. Data was collected at ambient room temperature or 19° C.
The recording extracellular solution contained (in mM): NaCl 145 mM, KCl 4 mM, CaCl2 2 mM, MgCl2 1 mM, HEPES 10 mM, Glucose 10 mM, pH 7.4 (NaOH). The intracellular recording solution contained (in mM): CsF 120 mM, CsCl 20 mM, NaCl 10 mM, EGTA 10 mM, HEPES 10 mM, pH 7.2 (CsOH). Currents were recorded at 25 kHz sampling frequency and filtered at 5 kHz. Series resistance compensation was applied at 65%.
Vehicle (VEH) is the control condition where cells are exposed to 0.3% DMSO without compound. All runs include VEH controls being exposed to the same voltage protocols to assess non-compound related phenomena such as run down and then used to isolate compound dependent effects on currents.
To check for state-dependent inhibition, the following voltage-sequence was applied every 20 seconds:
From a resting membrane potential of −120 mV, the first test pulse (P1; 20 ms to −10 mV) was applied to check for channels in the Resting State followed by a brief recovery (100 ms to −120 mV), then holding the membrane voltage to V1/2 (4 seconds at voltage to obtain half the channel at Rest and half Inactivated) with a subsequent second test pulse (P2; 20 ms to −10 mV) to check for channels in the Inactivated State, followed by another brief recovery (20 ms to −120 mV) and a final third test pulse (P3; 20 ms to −10 mV) to check for recovered channels.
To check for frequency-dependent inhibition, a 10 Hz protocol and a 20 Hz protocol were applied; namely,
From a resting membrane potential of −120 mV, 40-pulses (10 ms to −10 mV) was applied at 10 Hz (at 100 ms between pulses) and then at 20 Hz (at 50 ms between pulses).
Each parameter was recorded (P1, P2, P3, P40 from 10 Hz and P40 from 20 Hz) during a control period (lasting 5 minutes) when establishing the baseline and during compound period (lasting ~12 minutes) when test compound (or vehicle) was applied. For each parameter, the value at the end of the compound period was normalized to the vehicle baseline; as follows
To adjust for any variance in the Na^+ current signal during the compound period (owing to cumulative inactivation independent of compound or shifts in biophysics over time), a dedicated segment of the recording wells in each 384 plate were dedicated to having only vehicle exposure. These vehicle-only recordings were used to correct for any apparent “run-up” or “run-down” in the experiment.
The adjusted inhibition was calculated as follows: […]
Percent inhibition was determined and IC50 values were calculated using a 4 parameter logistic model within XLFit Software (IDBS, Boston MA): F
[formula] where A and B are the maximal and minimum inhibition respectively, C is the IC50 concentration and D is the (Hill) slope.
A general note: The patch-clamp technique gives a direct electrical read-out from membranes.

Some results are limits rather than exact numbers.

T1 sequence (Q9Y5Y9 whole entry): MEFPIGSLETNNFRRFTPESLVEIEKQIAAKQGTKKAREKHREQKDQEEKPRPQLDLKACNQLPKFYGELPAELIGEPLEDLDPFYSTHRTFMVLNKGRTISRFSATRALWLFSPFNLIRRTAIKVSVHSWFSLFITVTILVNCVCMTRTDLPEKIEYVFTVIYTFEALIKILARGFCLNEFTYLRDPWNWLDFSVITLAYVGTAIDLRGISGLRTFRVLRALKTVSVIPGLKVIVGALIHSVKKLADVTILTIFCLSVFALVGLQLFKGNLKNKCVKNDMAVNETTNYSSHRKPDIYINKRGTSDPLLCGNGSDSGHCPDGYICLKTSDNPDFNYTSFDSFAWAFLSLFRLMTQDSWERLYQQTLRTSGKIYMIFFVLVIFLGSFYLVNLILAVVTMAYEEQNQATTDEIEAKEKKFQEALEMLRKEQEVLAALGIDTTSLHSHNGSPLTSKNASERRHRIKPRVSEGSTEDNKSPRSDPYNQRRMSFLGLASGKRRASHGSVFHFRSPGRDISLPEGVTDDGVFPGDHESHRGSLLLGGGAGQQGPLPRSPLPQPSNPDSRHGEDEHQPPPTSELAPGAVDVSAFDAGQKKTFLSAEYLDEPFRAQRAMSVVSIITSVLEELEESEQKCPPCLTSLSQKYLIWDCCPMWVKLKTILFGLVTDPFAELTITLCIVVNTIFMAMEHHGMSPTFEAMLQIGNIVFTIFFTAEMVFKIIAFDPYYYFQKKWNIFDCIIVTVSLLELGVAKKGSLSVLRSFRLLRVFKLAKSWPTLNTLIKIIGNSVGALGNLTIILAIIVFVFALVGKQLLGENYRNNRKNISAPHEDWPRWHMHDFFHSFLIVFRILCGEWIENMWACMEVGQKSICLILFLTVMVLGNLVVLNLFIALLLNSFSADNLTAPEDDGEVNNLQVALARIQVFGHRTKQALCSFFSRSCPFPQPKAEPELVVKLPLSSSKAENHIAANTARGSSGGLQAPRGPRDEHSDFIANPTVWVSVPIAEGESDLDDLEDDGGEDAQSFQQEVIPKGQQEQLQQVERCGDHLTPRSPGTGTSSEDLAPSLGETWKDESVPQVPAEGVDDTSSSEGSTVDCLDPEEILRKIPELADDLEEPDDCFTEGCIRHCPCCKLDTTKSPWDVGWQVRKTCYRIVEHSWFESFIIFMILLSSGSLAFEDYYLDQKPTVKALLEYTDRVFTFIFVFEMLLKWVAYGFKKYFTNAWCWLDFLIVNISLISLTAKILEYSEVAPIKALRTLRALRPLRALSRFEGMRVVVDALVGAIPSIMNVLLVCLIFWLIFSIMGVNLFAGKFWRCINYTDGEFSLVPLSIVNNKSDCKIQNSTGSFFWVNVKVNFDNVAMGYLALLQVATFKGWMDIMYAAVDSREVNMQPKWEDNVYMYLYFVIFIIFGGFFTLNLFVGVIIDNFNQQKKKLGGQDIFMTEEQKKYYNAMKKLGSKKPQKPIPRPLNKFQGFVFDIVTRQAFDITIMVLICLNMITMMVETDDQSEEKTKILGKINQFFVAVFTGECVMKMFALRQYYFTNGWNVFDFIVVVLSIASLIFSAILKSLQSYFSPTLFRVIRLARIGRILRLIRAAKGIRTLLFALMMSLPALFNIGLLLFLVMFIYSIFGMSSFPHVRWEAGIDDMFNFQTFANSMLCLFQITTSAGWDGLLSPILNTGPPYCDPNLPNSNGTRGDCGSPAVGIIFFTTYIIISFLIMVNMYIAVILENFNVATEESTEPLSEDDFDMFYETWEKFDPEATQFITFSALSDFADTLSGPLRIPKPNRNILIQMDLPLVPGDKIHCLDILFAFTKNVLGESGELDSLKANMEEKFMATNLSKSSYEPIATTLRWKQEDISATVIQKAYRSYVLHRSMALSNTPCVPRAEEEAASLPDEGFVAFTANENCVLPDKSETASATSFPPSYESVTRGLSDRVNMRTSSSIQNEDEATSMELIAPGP

What is called IC50 is the concentration that inhibits the measured activity by half. For the compound `CC1(Cn2nc(C3CC3F)c(C(F)(F)F)c2C(=O)Nc2ccnc(S(C)(=N)=O)c2)CC(F)(F)C1` (racemic) [Example 62a, 1-((3,3-Difluoro-1-methylcyclobutyl)methyl)-3-(2-fluorocyclopropyl)-N-(2-(S-methylsulfonimidoyl)pyridin-4-yl)-4-(trifluoromethyl)-1H-pyrazole-5-carboxamide], the IC50 is at most 100 nM.

Turning to `CC1(Cn2nc(C3CC3)c(C(F)(F)F)c2C(=O)Nc2ccnc(S(C)(=N)=O)c2)CC(F)(F)C1` (single isomer, unassigned) [Example 1a, 3-cyclopropyl-1-((3,3-difluoro-1-methylcyclobutyl)methyl)-N-(2-(S-methylsulfonimidoyl)pyridin-4-yl)-4-(trifluoromethyl)-1H-pyrazole-5-carboxamide], the half-maximal inhibitory concentration (IC50) was at most 100 nM.

Consider `CC1(Cn2nc(C3CC3)c(C(F)(F)F)c2C(=O)Nc2ccnc(S(C)(=N)=O)c2)CC(F)(F)C1` (single isomer, unassigned) [Example 1b, 3-cyclopropyl-1-((3,3-difluoro-1-methylcyclobutyl)methyl)-N-(2-(S-methylsulfonimidoyl)pyridin-4-yl)-4-(trifluoromethyl)-1H-pyrazole-5-carboxamide], for which the IC50 is at most 100 nM.

Take `Cc1c(C(C)(F)F)nn(CC2(C)CC(F)(F)C2)c1C(=O)Nc1ccnc(S(C)(=N)=O)c1` (single isomer, unassigned) [Example 5a, 1-((3,3-difluoro-1-methylcyclobutyl)methyl)-3-(1,1-difluoroethyl)-4-methyl-N-(2-(S-methylsulfonimidoyl)pyridin-4-yl)-1H-pyrazole-5-carboxamide]: the IC50 was at most 100 nM.

Turning to `Cc1c(C(C)(F)F)nn(CC2(C)CC(F)(F)C2)c1C(=O)Nc1ccnc(S(C)(=N)=O)c1` (single isomer, unassigned) [Example 5b, 1-((3,3-difluoro-1-methylcyclobutyl)methyl)-3-(1,1-difluoroethyl)-4-methyl-N-(2-(S-methylsulfonimidoyl)pyridin-4-yl)-1H-pyrazole-5-carboxamide], the concentration for half-maximal inhibition (IC50) is at most 100 nM.

For `CS(=N)(=O)c1cc(NC(=O)c2c(C(F)(F)F)c(C3CC3)nn2CC2CCC(F)(F)C2)ccn1` (single isomer, unassigned) [Example 7a, 3-cyclopropyl-1-((3,3-difluorocyclopentyl)methyl)-N-(2-(S-methylsulfonimidoyl)pyridin-4-yl)-4-(trifluoromethyl)-1H-pyrazole-5-carboxamide], the IC50 is at most 100 nM.

Take `CS(=N)(=O)c1cc(NC(=O)c2c(C(F)(F)F)c(C3CC3)nn2CC2CCC(F)(F)C2)ccn1` (single isomer, unassigned) [Example 7b, 3-cyclopropyl-1-((3,3-difluorocyclopentyl)methyl)-N-(2-(S-methylsulfonimidoyl)pyridin-4-yl)-4-(trifluoromethyl)-1H-pyrazole-5-carboxamide]: the IC50 was at most 100 nM.

Consider `Cc1c(C(C)(F)F)nn(CC2CCC(F)(F)CC2)c1C(=O)Nc1ccnc(S(C)(=N)=O)c1` (single isomer, unassigned) [Example 9a, 1-((4,4-difluorocyclohexyl)methyl)-3-(1,1-difluoroethyl)-4-methyl-N-(2-(S-methylsulfonimidoyl)pyridin-4-yl)-1H-pyrazole-5-carboxamide], for which the half-maximal inhibitory concentration (IC50) was at most 100 nM.

Take `Cc1c(C(C)(F)F)nn(CC2CCC(F)(F)CC2)c1C(=O)Nc1ccnc(S(C)(=N)=O)c1` (single isomer, unassigned) [Example 9b, 1-((4,4-difluorocyclohexyl)methyl)-3-(1,1-difluoroethyl)-4-methyl-N-(2-(S-methylsulfonimidoyl)pyridin-4-yl)-1H-pyrazole-5-carboxamide]: the IC50 was at most 100 nM.

With `Cc1c(C(C)(F)F)nn(CC2(C)CCC(F)(F)CC2)c1C(=O)Nc1ccnc(S(C)(=N)=O)c1` (single isomer, unassigned) [Example 11a, 1-((4,4-difluoro-1-methylcyclohexyl)methyl)-3-(1,1-difluoroethyl)-4-methyl-N-(2-(S-methylsulfonimidoyl)pyridin-4-yl)-1H-pyrazole-5-carboxamide], the IC50 was at most 100 nM.

Turning to `Cc1c(C(C)(F)F)nn(CC2(C)CCC(F)(F)CC2)c1C(=O)Nc1ccnc(S(C)(=N)=O)c1` (single isomer, unassigned) [Example 11b, 1-((4,4-difluoro-1-methylcyclohexyl)methyl)-3-(1,1-difluoroethyl)-4-methyl-N-(2-(S-methylsulfonimidoyl)pyridin-4-yl)-1H-pyrazole-5-carboxamide], the IC50 is at most 100 nM.

For `Cc1c(C(C)(F)F)nn(CC23CC(C(F)(F)F)(C2)C3)c1C(=O)Nc1ccnc(S(C)(=N)=O)c1` (single isomer, unassigned) [Example 15a, 3-(1,1-difluoroethyl)-4-methyl-N-(2-(S-methylsulfonimidoyl)pyridin-4-yl)-1-((3-(trifluoromethyl)bicyclo[1.1.1]pentan-1-yl)methyl)-1H-pyrazole-5-carboxamide], the IC50 was at most 100 nM.

`Cc1c(C(C)(F)F)nn(CC23CC(C(F)(F)F)(C2)C3)c1C(=O)Nc1ccnc(S(C)(=N)=O)c1` (single isomer, unassigned) [Example 15b, 3-(1,1-difluoroethyl)-4-methyl-N-(2-(S-methylsulfonimidoyl)pyridin-4-yl)-1-((3-(trifluoromethyl)bicyclo[1.1.1]pentan-1-yl)methyl)-1H-pyrazole-5-carboxamide]: the 50% inhibitory concentration (IC50) was at most 100 nM.

Take `CS(=N)(=O)c1cc(NC(=O)c2c(C(F)(F)F)c(C3CC3)nn2C[C@H]2CCC(F)(F)C2)ccn1` (single isomer, unassigned) [Example 17a]: the half-inhibitory concentration (IC50) is at most 100 nM.

Regarding `CS(=N)(=O)c1cc(NC(=O)c2c(C(F)(F)F)c(C3CC3)nn2C[C@H]2CCC(F)(F)C2)ccn1` (single isomer, unassigned) [Example 17b], the IC50 is at most 100 nM.

As for `CS(=N)(=O)c1cc(NC(=O)c2c(C(F)(F)F)c(C3CC3)nn2C[C@@H]2CCC(F)(F)C2)ccn1` (single isomer, unassigned) [Example 17c], the 50% inhibitory concentration (IC50) is at most 100 nM.

Turning to `CS(=N)(=O)c1cc(NC(=O)c2c(C(F)(F)F)c(C3CC3)nn2C[C@@H]2CCC(F)(F)C2)ccn1` (single isomer, unassigned) [Example 17d], the IC50 was at most 100 nM.

On to `CS(=N)(=O)c1cc(NC(=O)c2c(C(F)(F)F)c(C3CC3)nn2CC2(F)CC3(CCC3)C2)ccn1` (single isomer, unassigned) [Example 21a, 3-cyclopropyl-1-((2-fluorospiro[3.3]heptan-2-yl)methyl)-N-(2-(S-methylsulfonimidoyl)pyridin-4-yl)-4-(trifluoromethyl)-1H-pyrazole-5-carboxamide], for which the 50% inhibitory concentration (IC50) was at most 100 nM.

`CS(=N)(=O)c1cc(NC(=O)c2c(C(F)(F)F)c(C3CC3)nn2CC2(F)CC3(CCC3)C2)ccn1` (single isomer, unassigned) [Example 21b, 3-cyclopropyl-1-((2-fluorospiro[3.3]heptan-2-yl)methyl)-N-(2-(S-methylsulfonimidoyl)pyridin-4-yl)-4-(trifluoromethyl)-1H-pyrazole-5-carboxamide]: the 50% inhibitory concentration (IC50) is at most 100 nM.

In the case of `CS(=N)(=O)c1cc(NC(=O)c2c(C(F)(F)F)c(C3CC3)nn2CC23CC(C(F)(F)F)(C2)C3)ccn1` (single isomer, unassigned) [Example 23a, 3-cyclopropyl-N-(2-(S-methylsulfonimidoyl)pyridin-4-yl)-4-(trifluoromethyl)-1-((3-(trifluoromethyl)bicyclo[1.1.1]pentan-1-yl)methyl)-1H-pyrazole-5-carboxamide], the IC50 is at most 100 nM.

On to `CS(=N)(=O)c1cc(NC(=O)c2c(C(F)(F)F)c(C3CC3)nn2CC23CC(C(F)(F)F)(C2)C3)ccn1` (single isomer, unassigned) [Example 23b, 3-cyclopropyl-N-(2-(S-methylsulfonimidoyl)pyridin-4-yl)-4-(trifluoromethyl)-1-((3-(trifluoromethyl)bicyclo[1.1.1]pentan-1-yl)methyl)-1H-pyrazole-5-carboxamide], for which the IC50 was at most 100 nM.
